Measurements: ChEMBL document CHEMBL1649189, “Avian Aspergillus fumigatus strains resistant to both itraconazole and voriconazole” (2009)
Values after ≈ are worked out from the molar mass of the structure shown.

Experiments:
Assay type in all cases: functional
Aspergillus fumigatus [1] = assay: Antifungal activity against Aspergillus fumigatus isolate by broth microdilution method
Aspergillus fumigatus [2] = assay: Antifungal activity against itraconazole-resistant Aspergillus fumigatus isolate by broth microdilution method
Aspergillus fumigatus [3] = assay: Antifungal activity against voriconalzole-resistant Aspergillus fumigatus isolate by broth microdilution method

Compound | MIC50 (Aspergillus fumigatus [1]) [µg/mL] | MIC90 (Aspergillus fumigatus [1]) [µg/mL] | MIC (Aspergillus fumigatus [2]) [µg/mL] | MIC (Aspergillus fumigatus [3]) [µg/mL]
C[C@@H](c1ncncc1F)[C@](O)(Cn1cncn1)c1ccc(F)cc1F [VORICONAZOLE] | 0.25 (≈ 0.716 µM) | 0.5 (≈ 1.43 µM) | 4 (≈ 11.5 µM) | –
CCC(C)n1ncn(-c2ccc(N3CCN(c4ccc(OCC5COC(Cn6cncn6)(c6ccc(Cl)cc6Cl)O5)cc4)CC3)cc2)c1=O (stereo not drawn) [ITRACONAZOLE] | 0.5 (≈ 0.709 µM) | 0.5 (≈ 0.709 µM) | – | > 16
C[C@@H]1[C@H](O)[C@@H](C)/C=C/C=C/C=C/C=C/C=C/C=C/C=C/[C@H](O[C@@H]2O[C@H](C)[C@@H](O)[C@H](N)[C@@H]2O)C[C@@H]2O[C@](O)(C[C@@H](O)C[C@@H](O)[C@H](O)CC[C@@H](O)C[C@@H](O)CC(=O)O[C@H]1C)C[C@H](O)[C@H]2C(=O)O [AMPHOTERICIN B] | 2 (≈ 2.16 µM) | 2 (≈ 2.16 µM) | – | –
